pIC50: −log10 of the molar value.
Assays:
Assay type in all cases: cell-based
Settings in all cases: Homo sapiens, THP-1, Table 7, PMA 50 ng/mL, LPS 100 ng/mL
IL-6 = experiment: Inhibition of IL-6 in PMA-differentiated, LPS-stimulated THP-1 cells (ELISA of cell supernatant)
Experimental: (§1) (1) Cell culture and inoculation: A stock solution of PMA at 1 mg/mL was diluted with serum-free RP1640 medium to prepare a 100 ng/mL PMA solution. Normal cultured THP-1 cells were centrifuged, resuspended in a complete medium (RP1640 medium containing 10% FBS), and counted. The cell density was adjusted to 2×10^6 cells/mL. An equal volume of 100 ng/mL PMA solution was then added, resulting in a cell density of 1×10^6 cells/mL and a final PMA concentration of 50 ng/mL. 100 μL of the cell suspension was seeded into each well of a 96-well cell culture plate with 1×10^5 cells per well. The 96-well cell culture plate was then incubated at 37° C. in a 5% CO2 atmosphere for 24 hours.
(§2) (2) Drug treatment of cells: On the second day, LPS was added to the complete medium to adjust the final concentration to 100 ng/mL, and the compound was prepared using this LPS-containing medium. The compound was added to the appropriate cell wells according to the prepared concentration gradient. The positive control group (LPS+) was a culture medium solution containing a final concentration of 100 ng/mL LPS and 0.1% DMSO without drugs, while the negative control group (LPS-) was a culture medium solution containing 0.1% DMSO without LPS. The volume in each well was 100 μL.
(§3) (3) Test sample collection: The mixture was centrifuged at 1000 rpm for 5 minutes and the cell supernatant and cell precipitate were collected separately. The cell supernatant was used to detect TNF-α and IL-6, and the cell precipitate was collected for IL-1β detection. After collecting the cell supernatant, the remaining liquid in the wells was discarded and 100 μL of cell lysis solution (20 mM Tris 8.0; 2 mM EDTA; 0.5% Triton X-100) was added to each well for complete lysis.
(§4) (4) Sample detection: The enzyme-linked immunosorbent assay (ELISA) was used to detect the content of each cytokine. The specific steps were performed according to the instructions provided in the corresponding kit manuals. The catalog numbers of kits are as follows: • Human TNF-alpha Quantikine ELISA Kit, Catalog # STA00D • Human IL-1 beta/IL-1F2 Quantikine ELISA Kit, Catalog # SLB50 • Human IL-6 Quantikine ELISA Kit, Catalog # S6050.
(§5) (5) Data analysis: The in vitro inhibitory activity of the compounds was calculated using the following formula: […]

TNF-α = experiment: Inhibition of TNF-α in PMA-differentiated, LPS-stimulated THP-1 cells (ELISA of cell supernatant)
Experimental: as §1, §2, §3, §4, §5

IL-1β = experiment: Inhibition of IL-1β in PMA-differentiated, LPS-stimulated THP-1 cells (ELISA of cell lysate)
Experimental: as §1, §2, §3, §4, §5

Row | SMILES | pIC50 (IL-6) | pIC50 (TNF-α) | pIC50 (IL-1β)
1 | COC(=O)c1ccc(CN(CCO)CCCC(C)Nc2ccnc3cc(Cl)ccc23)c(OC)c1 (stereo not drawn) [Example 22, Methyl 4-(((4-((7-chloroquinolin-4-yl)amino)pentyl)(2-hydroxyethyl)amino)methyl)-3-methoxybenzoate] | 5.69 | 5.16 | 5.01
2 | CC(CCCN(CCO)Cc1ccc(C#N)cc1)Nc1ccnc2cc(Cl)ccc12 (stereo not drawn) [Example 23, 4-(((4-((7-Chloroquinolin-4-yl)amino)pentyl)(2-hydroxyethyl)amino)methyl)benzonitrile] | 6.42 | 5.55 | 5.87
3 | CC(CCCN(CCO)Cc1cccc(C(F)(F)F)c1)Nc1ccnc2cc(Cl)ccc12 (stereo not drawn) [Example 24, 2-((4-((7-Chloroquinolin-4-yl)amino)pentyl)(3-(trifluoromethyl)benzyl)amino)ethan-1-ol] | 5.92 | 5.32 | 5.35
4 | CC(CCCN(CCO)Cc1ccc2ccccc2c1)Nc1ccnc2cc(Cl)ccc12 (stereo not drawn) [Example 25, 2-((4-((7-Chloroquinolin-4-yl)amino)pentyl)(naphthalen-2-ylmethyl)amino)ethan-1-ol] | 5.88 | 5.29 | 5.36
5 | CC(CCCN(CCO)Cc1ccc(S(C)(=O)=O)cc1)Nc1ccnc2cc(Cl)ccc12 (stereo not drawn) [Example 26, 2-((4-((7-Chloroquinolin-4-yl)amino)pentyl)(4-(methylsulfonyl)benzyl)amino)ethan-1-ol] | 6.48 | 5.42 | 4.85
6 | COC(=O)c1ccc(CN(CCO)CCCC(C)Nc2ccnc3cc(Cl)ccc23)cc1 (stereo not drawn) [Example 27, Methyl 4-(((4-((7-chloroquinolin-4-yl)amino)pentyl)(2-hydroxyethyl)amino)methyl)benzoate] | 6.28 | 5.66 | 5.24
7 | CC(CCCN(CCO)Cc1ccc(-n2cccn2)cc1)Nc1ccnc2cc(Cl)ccc12 (stereo not drawn) [Example 28, 2-((4-(1H-Pyrazol-1-yl)benzyl)(4-((7-chloroquinolin-4-yl)amino)pentyl)amino)ethan-1-ol] | 6.17 | 4.95 | 4.96
8 | CC(CCCN(CCO)Cc1c(F)cccc1Cl)Nc1ccnc2cc(Cl)ccc12 (stereo not drawn) [Example 29, 2-((2-Fluoro-6-chlorobenzyl)(4-((7-chloroquinolin-4-yl)amino)pentyl)amino)ethan-1-ol] | 6.44 | 5.58 | 5.39
9 | CC(CCCN(CCO)Cc1ccc(C#N)cc1F)Nc1ccnc2cc(Cl)ccc12 (stereo not drawn) [Example 30, 4-(((4-((7-Chloroquinolin-4-yl)amino)pentyl)(2-hydroxyethyl)amino)methyl)-3-fluorobenzonitrile] | 6.92 | 6.01 | 5.87
10 | COc1ccc(CN(CCO)CCCC(C)Nc2ccnc3cc(Cl)ccc23)cc1F (stereo not drawn) [Example 31, 2-((4-((7-Chloroquinolin-4-yl)amino)pentyl)(3-fluoro-4-methoxybenzyl)amino)ethan-1-ol] | 5.88 | 5.15 | 5.06
11 | CC(CCCN(CCO)Cc1ccccc1)Nc1ncnc2cc(Cl)ccc12 (stereo not drawn) [Example 34, 2-(Benzyl(4-((7-chloroquinazolin-4-yl)amino)pentyl)amino)ethan-1-ol] | 5.50 | 4.48 | 4.44
12 | CC(CCCN(CCO)Cc1ccccc1)Nc1ncnc2cc(F)ccc12 (stereo not drawn) [Example 35, 2-(Benzyl(4-((7-fluoroquinazolin-4-yl)amino)pentyl)amino)ethan-1-ol] | 6.09 | 4.70 | 5.25
13 | COC(=O)c1ccc(CN(CCO)CCCC(C)Nc2ncnc3cc(Cl)ccc23)cc1 (stereo not drawn) [Example 36, Methyl 4-(((4-((7-chloroquinazolin-4-yl)amino)pentyl)(2-hydroxyethyl)amino)methyl)benzoate] | 5.98 | 5.16 | 4.77
14 | COc1ccc(CN(CCO)CCCC(C)Nc2ncnc3cc(Cl)ccc23)cc1F (stereo not drawn) [Example 37] | 6.74 | 5.31 | 4.38
15 | CC(CCCN(CCO)Cc1ccc(-n2cccn2)cc1)Nc1ncnc2cc(Cl)ccc12 (stereo not drawn) [Example 39] | 6.11 | 5.10 | 5.13
16 | CC(CCCN(CCO)Cc1ccc(S(C)(=O)=O)cc1)Nc1ncnc2cc(Cl)ccc12 (stereo not drawn) [Example 40] | 6.22 | 5.00 | 6.15

Reference: patent US20240262793A1, “QUINAZOLINE COMPOUND, AND PREPARATION METHOD THEREFOR AND APPLICATION THEREOF” (SHANGHAI PHARMACEUTICALS HOLDING CO., LTD., priority 2021, published 2024)
